From article PMC10328743, “5-Nitro-3-(2-(4-phenylthiazol-2-yl)hydrazineylidene)indolin-2-one derivatives inhibit HIV-1 replication by a multitarget mechanism of action” (Frontiers in Cellular and Infection Microbiology, 2023)
Where two headings read alike, the source gives them in different places.

Experiments:
[1] = system: HIV-1 RT Y188L (RDDP); experiment: RDDP activity of Y188L HIV-1 RT; assay type: biochemical
Procedure: (§1) K103N, Y181C, and Y188L mutations were introduced into the p6HRT-prot vector using the QuikChange protocol (Agilent Technologies, Santa Clara, CA, USA). Enzymes were expressed and purified as the wt-HIV-1 RT.
(§2) RDDP activity was measured as previously reported in 25-µl volume containing 60 mM of Tris‐HCl buffer, pH 8.1, 8 mM of MgCl2, 60 mM of KCl, 13 mM of DTT, 2.5 µM of poly(A)-oligo(dT), 100 µM of dTTP, increasing concentrations of inhibitors, whose dilution were made in water, and different amounts of enzymes according to a linear range of the dose–response curve. The reaction mixture was incubated for 30 min at 37°C and then stopped by the addition of EDTA. Reaction products were detected by pico green addition and measured with a multilabel counter plate reader Victor 3, equipped with filters for 502/523 nm.

[2] = system: HIV-1 RT K103N (RDDP); experiment: RDDP activity of K103N HIV-1 RT; assay type: biochemical
Procedure: as §1, §2

[3] = system: MT4 cells; conditions: cited from earlier work
[4] = system: HIV-1 RT Y181C (RDDP); experiment: RDDP activity of Y181C HIV-1 RT; assay type: biochemical
Procedure: as §1, §2

[5] = target: T1, HIV-1 IN (LEDGF-independent) (Human immunodeficiency virus type 1 group M subtype B, UniProt P12497); experiment: biochemical; conditions: strand-transfer activity with omission of LEDGF/p75; read-out: IC50 IN LEDGF-independent integration
T1 construct: Preparation of recombinant full-length IN and LEDGF proteins; made in house; host or cells: E. coli BL21(DE3)
Procedure: (§3) Proteins were expressed in E. coli BL21(DE3). Briefly, His-IN was purified by loading the precipitate of cell lysate onto a Ni-Sepharose column and eluting with a […] imidazole gradient (0–500 mM) in a HEPES buffer (50 mM, pH 7.5) containing NaCl (1 M), CHAPS (7.5 mM), and β-mercaptoethanol (2 mM). FLAG-IN was purified by loading the precipitate of cell lysate onto a phenyl-sepharose and ammonium sulfate gradient (0–800 mM) in a HEPES (pH 7.5, 50 mM) buffer containing NaCl (200 mM), CHAPS (7.5 mM), and β-mercaptoethanol (2 mM). Peak fractions were pooled, loaded onto a heparin column, and eluted with an increasing NaCl gradient (200 mM to 1 M) in a HEPES (pH 7.5, 50 mM) buffer containing CHAPS (7.5 mm) and β-mercaptoethanol (2 mM). Fractions containing integrase were pooled and stored in glycerol (10%) at −80°C.
(§4) Briefly, IN (50 nM) was preincubated with increasing concentrations of compounds for 1 h at room temperature in a reaction buffer containing HEPES (20 mM, pH 7.5), DTT (1 mM), glycerol (1%), MgCl2 (20 mM), Brij-35 (0.05%), and bovine serum albumin (BSA) (0.1 mg/ml).

[6] = target: T2, HIV-1 IN-IN subunit exchange (Human immunodeficiency virus type 1 group M subtype B, UniProt P12497); experiment: HTRF-based IN subunit exchange assay; assay type: binding
T2 construct: Preparation of recombinant full-length IN and LEDGF proteins; made in house; host or cells: E. coli BL21(DE3)
Procedure: as §3
His and FLAG-tagged INs were mixed in Tris (pH 7.4, 25 mm) buffer containing NaCl (150 mm), MgCl2 (2 mM), Nonidet P-40 (0.1%), and BSA (1 mg/ml). Test compounds were then added to the mixture, and incubation was carried out for 2.5 h at room temperature.

[7] = target: T3, HIV-1 IN (LEDGF/p75-dependent) (Human immunodeficiency virus type 1 group M subtype B, UniProt P12497); experiment: biochemical; assay type: biochemical; conditions: strand-transfer activity in the presence of LEDGF/p75; read-out: IC50 IN LEDGF-dependent integration
T3 construct: Preparation of recombinant full-length IN and LEDGF proteins; made in house; host or cells: E. coli BL21(DE3)
Procedure: as §3, §4

[8] = target: T4, HIV-1 IN-LEDGF binding (Human immunodeficiency virus type 1 group M subtype B, UniProt P12497); experiment: biochemical
T4 construct: Preparation of recombinant full-length IN and LEDGF proteins; made in house; host or cells: E. coli BL21(DE3)
Procedure: as §3
Briefly, His-IN was preincubated with different concentrations of a compound in a buffer containing NaCl (150 mm), MgCl2 (2 mM), Nonidet P-40 (0.1%), BSA (1 mg/ml), and Tris (pH 7.4, 25 mm) for 30 min at room temperature. Then, FLAG-LEDGF was added to the reaction mixture, and a mixture of anti-His6-XL665 and anti-FLAG-EuCryptate antibodies was added.

[9] = system: HIV-1; experiment: HIV-1 replication inhibition in MT4 cells; assay type: cell-based; conditions: three independent experiments, average ± standard deviation, read-out: HIV-1 EC50
Procedure: (§5) HIV-1 replication was carried out in MT4 cells as previously reported ([Corona et al., 2016a]) using a molecular clone derived from the pNL4-3 ([Thierry et al., 2015]). A total of 120 ng of p24^gag antigen per 10^6 cells, corresponding to a multiplicity of infection (m.o.i.) of 0.3, was used for infection. […] Flow cytometry analysis was performed on a FACSCalibur flow cytometer (BD Biosciences, San Jose, CA, USA), and the results were analyzed using the […] software.

[10] = target: T5, HIV-1 RT-associated RNase H (Human immunodeficiency virus type 1 group M subtype B, UniProt P04585); experiment: HIV-1 DNA polymerase-independent RNase H activity determination; assay type: biochemical; conditions: wt HIV-1 RT; three independent experiments, average ± standard deviation; read-out: RNase H IC50
T5 construct: The 1:1 ratio between the p66/p51 subunits was also verified; His tag (implied only by Ni-NTA IMAC purification); made in house; host or cells: Escherichia coli M15
Procedure: (§6) Escherichia coli strain M15 containing the p6HRT-prot vector (provided by Stuart Le Grice laboratory (NCI Frederick)) was grown to an optical density at 600 nm of 0.7 and induced with 1.7 mM of isopropyl β-D-1-thiogalactopyranoside (IPTG) for 4 h. Protein purification was carried out with a BioLogic LP system (Bio-Rad, Hercules, CA, USA) using a combination of immobilized metal affinity chromatography (IMAC) and ion exchange chromatography. Cell pellets were resuspended in lysis buffer (50 mM of sodium phosphate buffer, pH 7.8, containing 0.5 mg/mL of lysozyme), incubated on ice for 20 min, and, after the addition of NaCl to a final concentration of 0.3 M, were sonicated and centrifuged at 30,000 ×g for 1 h. The supernatant was loaded onto a Ni^2+-NTA-Sepharose column pre-equilibrated with loading buffer (50 mM of sodium phosphate buffer, pH 7.8, containing 0.3 M of NaCl, 10% glycerol, and 10 mM of imidazole) and washed thoroughly with wash buffer (50 mM of sodium phosphate buffer, pH 6.0, containing 0.3 M of NaCl, 10% glycerol, and 80 mM of imidazole). RT was eluted with an imidazole gradient in the wash buffer (0–0.5 M). Fractions were collected, and protein purity was checked by sodium dodecyl sulfate–polyacrylamide gel electrophoresis (SDS-PAGE) and found to be higher than 90%. The 1:1 ratio between the p66/p51 subunits was also verified. Enzyme-containing fractions were pooled and diluted 1:1 with 50 mM of sodium phosphate buffer, pH 7.0, containing 10% glycerol, and then loaded into a Hi-trap heparin HP GE (Healthcare LifeScience) pre-equilibrated with 10 column volumes of loading buffer (50 mM of sodium phosphate buffer, pH 7.0, containing 10% glycerol, and 150 mM of NaCl). The column was then washed with loading buffer, and the RT was eluted with Elute Buffer 2 (50 mM of sodium phosphate, pH 7.0, 10% glycerol, 1 M of NaCl). Fractions were collected, and the protein was dialyzed and stored in a buffer containing 50 mM of Tris-HCl, pH 7.0, 25 mM of NaCl, 1 mM of EDTA, and 50% glycerol. Catalytic activities and protein concentrations were determined. Enzyme-containing fractions were pooled, and aliquots were stored at −80°C.
HIV RT-associated RNase H activity was measured as described ([Corona et al., 2016b]) in a 100-µl reaction volume containing 50 mM of Tris-HCl buffer, pH 7.8, 6 mM of MgCl2, 1 mM of dithiothreitol (DTT), 80 mM of KCl, 0.25 µM of hybrid RNA/DNA 5′-[…]-Fluorescin-3′ (high-performance liquid chromatography (HPLC), dry, QC: Mass Check) (available from Metabion) 5′-Dabcyl-[…]-3′ (HPLC, dry, QC: Mass Check), increasing concentrations of inhibitors, whose dilution were made in water, and different amounts of enzymes according to a linear range of the dose–response curve. The reaction mixture was incubated for 1 h at 37°C and stopped by the addition of EDTA, and products were measured with a multilabel counter plate reader Victor 3 equipped with filters for 490/528 nm.

[11] = target: T6, HIV-1 RT-associated RDDP (Human immunodeficiency virus type 1 group M subtype B, UniProt P04585); experiment: HIV-1 RNA-dependent DNA polymerase activity determination; assay type: biochemical; conditions: wt HIV-1 RT; three independent experiments, average ± standard deviation; read-out: RDDP IC50
T6 construct: The 1:1 ratio between the p66/p51 subunits was also verified; His tag (implied only by Ni-NTA IMAC purification); made in house; host or cells: Escherichia coli M15
Procedure: as §6, §2

[12] = system: MT4 cells; experiment: Viability of infected MT4 cells (cytotoxicity); assay type: cell-based; conditions: no toxicity up to the highest concentration tested
Procedure: as §5

[13] = Viability of infected MT4 cells (cytotoxicity); assay type: cell-based; conditions: human, MT4 cells infected with HIV-1; infected MT4 cells viability; three independent experiments, average ± standard deviation
Procedure: as §5

[14] = system: HIV-1; conditions: read-out: HIV-1 EC50; viral replication in MT4 cells; ref Corona et al. (2014a); cited from earlier work
[15] = Human immunodeficiency virus 1, MT4, viral replication in MT4 cells

Row | SMILES | increase in IC50 vs wt RT, RDDP activity [1] [fold] | increase in IC50 vs wt RT, RDDP activity [2] [fold] | CC50 ([3]; read-out: MT4 CC50, MT4 cells viability, ref Corona et al. (2014a)) [µM] | increase in IC50 vs wt RT, RDDP activity [4] [fold] | IC50 [5] [µM] | IC50 [6] [µM] | IC50 [7] [µM] | IC50 [8] [µM] | EC50 [9, 15] [µM] | EC50 ([9]; viral replication in MT4 cells) [µM] | IC50 [10] [µM] | IC50 [11] [µM] | toxicity against MT4 cells [12] [µM] | CC50 [13] [µM] | EC50 [14] [µM] | CC50 [3] [µM]
1 | O=C1Nc2ccc(Cl)cc2[C@@](C#CC2CC2)(C(F)(F)F)O1 [EFV, efavirenz] | 14 | 9.1 | > 0.31 | 3.5 | – | – | – | – | – | – | – | – | – | – | – | –
2 | N#Cc1ccc(-c2csc(NN=C3C(=O)Nc4ccccc43)n2)cc1 [RMNC6, reference compound] | – | – | – | – | > 100 | > 100 | > 100 | > 100 | – | – | – | – | – | – | – | –
3 | O=C1Nc2ccc([N+](=O)[O-])cc2/C1=N/Nc1nc(-c2ccc(Cl)cc2)cs1 [1a] | – | – | – | – | 100 | 22.8 ± 2.6 | 22.4 ± 4.65 | > 100 | < 20 | 25 ± 2.1 | 4.6 ± 1.4 | 10 ± 0.5 | > 100 | > 100 | – | –
4 | O=C1Nc2ccc([N+](=O)[O-])cc2/C1=N/Nc1nc(-c2ccc(Br)cc2)cs1 [3a] | – | – | – | – | 73.5 ± 13.5 | 18.5 ± 3.5 | 15.5 ± 3 | > 100 | < 20 | 32 ± 3.2 | 4.3 ± 0.7 | 8.5 ± 0.5 | > 100 | > 100 | – | –
5 | CCOC(=O)C(=O)CC(=O)/C=C/c1cccn1Cc1ccccc1Cl [RDS1759] | – | – | – | – | – | – | – | – | – | – | – | – | – | – | 2.1 | > 50
